Entries after “also recorded” stand apart in the source; their conditions may differ.
How the values were obtained:
P. berghei [1] = test: Protection of mice infected with P. berghei (mortality, parasite count in blood); type: in vivo
Procedure: (§1) Appropriate solvent controls were used. Parasite growth was measured by staining the slides with Giemsa as well as [α3H]-hypoxanthine uptake. In the latter case, the cultured cells were lysed with water and the parasites collected by filtration, washed and radioactivity measured. Adult f mice (40-50 g) were infected with P. berghei by intraperitoneal injection of an aliquot of infected mouse blood. After 24 hr, the animals were given a single injection of different amounts of artemisinin derivative at a dose of 5 mg/mouse. The oral feeding was repeated after 24 hr and 48 hr. Parasite count was measured in blood before and drug therapy at different time intervals using Giemsa to stain the slides. All the infected mice die in a span of 5-8 days and the efficacy of the drugs given singly or in combination was measured in terms of parasite clearance in blood and protection against mortality.
Striking results were obtained in terms of parasite clearance and protection against mortality. The experiments were carried out with 6 mice per batch and the experiments were repeated at least 3 times. The results presented in FIG. 3 represent those obtained in a typical experiment. The results obtained in the 2nd and 3rd experiments are identical in pattern. The average pattern obtained with the infected animals is as follows. All the infected animals die in about 5-8 days. […] A single injection of artemisinin derivative (α,β-arteether) at a dose of 500 μg/mouse results in death of animals in 10-12 days. […] Treatment with a single injection α,β-arteether at 750 μg and 1.5 mg results in death of animals between 20-26 days and 32-38 days respectively. […] The animals continue to live normally for several months. This picture is also supported by parasite load in blood (FIG. 4).
Methodology; Mice (−40 g) were infected ˜ with P. berghei by intraperitoneal infection. After 24 hrs, the animals received a single injection of different concentrations of a derivative of artemisinin (α,β-arteether) (500˜g to 1.5 mg) by the intramuscular route. […] The oral treatment was repeated after 24 hr and 48 hr. Blood smears were made from the mice at different day intervals and parasites stained with Giemsa. […] The experiments were repeated thrice with 6 mice in each group.

[2] = test system: P. falciparum (chloroquine-resistant); test: P. falciparum culture growth by [3H]-hypoxanthine uptake, drugs singly or in combination, with isobolographic analysis; type: cell-based, Plasmodium falciparum; settings: 48 hrs, starting parasitemia 2-3%
Procedure: as §1
The potency of the combination was assessed by isobolographic characterization of the drug interactions. The additive or synergistic or antagonistic effects were assessed based on the following interaction index:
When I is less than 1 the drugs interact synergistically and the isobol bows below the line of additivity. When I is equal to 1 the isobol is coincident with the line of additivity and the interaction is additive. When I is greater than 1, the isobol bows above the line of additivity and the interaction is antagonistic. […] The interaction between curcumin and artemisinin is thus clearly synergistic.
P. falciparum (chloroquine-resistant) was maintained in culture using human O+ve red cells and serum by the candle jar method as per standard protocols. […] Appropriate solvent controls were used. Parasite growth was quantitatively measured using 3[H]-hypoxanthine uptake. The cultured cells were incubated for 48 hrs and then the parasites were collected by filtration after lysis of the cells. The filters were extensively washed and then radioactivity measured. […] The potency of the combination was assessed by isobolographic characterization of drug interactions.
The T values ranged from 0.7 to 0.85 in all combinations. The isobol bowling below the line of additivity and the T values being less than 1 indicate that the curcumin-artemisinin. Interaction is clearly synergistic

P. falciparum = settings: culture of P. falciparum; cited from earlier work
P. berghei [3] = settings: mice infected with P. berghei; cited from earlier work

SMILES	death of animals (P. berghei [1]; single injection 750 μg per mouse)	death of animals (P. berghei [1]; single injection 1.5 mg per mouse)	parasite load in blood (P. berghei [1]; single injection, Giemsa stained blood smears)	IC50 [2]	IC50 ([2]; Plasmodium falciparum)	death of animals (P. berghei [1]; curcumin alone, 3 day oral treatment (5 mg), untreated infected mice die in 5-8 days)	antimalarial activity (P. falciparum)	antimalarial activity (P. berghei [3])
CCO[C@H]1O[C@@H]2O[C@@]3(C)CC[C@H]4[C@H](C)CC[C@@H]([C@H]1C)[C@@]24OO3 [α,β-arteether]	20 to 26 days	32 to 38 days	clears the parasites in blood initially, but there is recrudescence; also recorded: clears parasites in blood initially, but there was recrudescence	–	–	–	–	–
COc1cc(/C=C/C(=O)CC(=O)/C=C/c2ccc(O)c(OC)c2)ccc1O [curcumin]	–	–	–	~15 µM	15 to 17 µM	10 to 12 days	has antimalarial activity	has antimalarial activity
C[C@@H]1CC[C@H]2[C@@H](C)C(=O)O[C@@H]3O[C@@]4(C)CC[C@@H]1[C@]32OO4 [artemisinin]	–	–	–	~0.055 µM	0.045 to 0.055 µM	–	–	–
